In ChEMBL document CHEMBL4825781, “Role of Fluorination in the Histone Deacetylase 6 (HDAC6) Selectivity of Benzohydroxamate-Based Inhibitors” (ACS Med Chem Lett, 2021):

Legend:
Homo sapiens = species: Homo sapiens; test: Selectivity index, ratio of IC50 for recombinant human C-terminal His-tagged HDAC1 expressed in Sf9 cells to IC50 for recombinant human full length N-terminal GST-tagged HDAC6 expressed in Sf9 cells
[1] = molecular target: T1, Protein deacetylase HDAC6 (Homo sapiens, UniProt Q9UBN7); test: Inhibition of recombinant human full length N-terminal GST-tagged HDAC6 expressed in Sf9 insect cells using Fluor de Lys deacetylase or Fluor de Lys Green deacetylase substrate by fluorescent microplate reader assay
T1 sequence (Q9UBN7 whole entry): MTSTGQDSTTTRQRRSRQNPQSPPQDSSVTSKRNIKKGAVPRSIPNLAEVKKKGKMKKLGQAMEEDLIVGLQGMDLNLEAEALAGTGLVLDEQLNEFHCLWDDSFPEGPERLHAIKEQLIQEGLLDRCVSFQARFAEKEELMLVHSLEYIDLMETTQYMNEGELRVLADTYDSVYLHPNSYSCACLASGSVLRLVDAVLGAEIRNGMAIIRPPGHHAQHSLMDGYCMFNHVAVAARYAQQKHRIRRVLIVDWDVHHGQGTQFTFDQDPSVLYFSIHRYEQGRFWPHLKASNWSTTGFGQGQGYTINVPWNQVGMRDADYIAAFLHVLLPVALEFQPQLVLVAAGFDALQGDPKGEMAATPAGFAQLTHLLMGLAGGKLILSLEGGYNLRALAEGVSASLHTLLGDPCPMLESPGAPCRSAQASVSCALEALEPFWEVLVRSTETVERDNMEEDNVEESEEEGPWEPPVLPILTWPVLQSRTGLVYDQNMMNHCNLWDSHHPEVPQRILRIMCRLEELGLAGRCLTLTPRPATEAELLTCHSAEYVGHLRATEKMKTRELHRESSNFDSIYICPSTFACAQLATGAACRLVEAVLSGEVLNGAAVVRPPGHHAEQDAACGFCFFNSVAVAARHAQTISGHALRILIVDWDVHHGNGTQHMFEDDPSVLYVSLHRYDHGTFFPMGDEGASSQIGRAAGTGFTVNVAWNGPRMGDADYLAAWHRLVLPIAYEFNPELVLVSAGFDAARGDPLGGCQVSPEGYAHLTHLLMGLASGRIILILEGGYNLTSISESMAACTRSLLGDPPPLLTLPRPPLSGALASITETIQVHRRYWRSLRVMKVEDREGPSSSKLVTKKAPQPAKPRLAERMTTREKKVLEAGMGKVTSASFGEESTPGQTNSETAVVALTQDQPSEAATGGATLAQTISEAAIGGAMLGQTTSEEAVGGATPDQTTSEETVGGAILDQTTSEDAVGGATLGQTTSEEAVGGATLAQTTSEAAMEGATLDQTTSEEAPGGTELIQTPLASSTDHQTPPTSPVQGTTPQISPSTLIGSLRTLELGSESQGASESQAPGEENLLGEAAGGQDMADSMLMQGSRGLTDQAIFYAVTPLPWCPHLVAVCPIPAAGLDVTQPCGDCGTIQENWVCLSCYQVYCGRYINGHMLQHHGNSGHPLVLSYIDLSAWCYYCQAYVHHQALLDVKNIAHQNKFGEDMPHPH

Histone deacetylase 1 = Histone deacetylase 1 (Homo sapiens, UniProt Q13547); test: Inhibition of recombinant human C-terminal His-tagged HDAC1 expressed in Sf9 insect cells using Fluor de Lys deacetylase or Fluor de Lys Green deacetylase as substrate by fluorescent microplate reader assay
[2] = molecular target: T2, Polyamine deacetylase HDAC10 (Homo sapiens, UniProt Q969S8); test: Inhibition of recombinant human N-terminal FLAG-tagged HDAC10 (1 to 613 residues) expressed in Sf9 insect cells using Fluor de Lys deacetylase or Fluor de Lys Green deacetylase substrate by fluorescent microplate reader assay
T2 sequence (Q969S8 whole entry): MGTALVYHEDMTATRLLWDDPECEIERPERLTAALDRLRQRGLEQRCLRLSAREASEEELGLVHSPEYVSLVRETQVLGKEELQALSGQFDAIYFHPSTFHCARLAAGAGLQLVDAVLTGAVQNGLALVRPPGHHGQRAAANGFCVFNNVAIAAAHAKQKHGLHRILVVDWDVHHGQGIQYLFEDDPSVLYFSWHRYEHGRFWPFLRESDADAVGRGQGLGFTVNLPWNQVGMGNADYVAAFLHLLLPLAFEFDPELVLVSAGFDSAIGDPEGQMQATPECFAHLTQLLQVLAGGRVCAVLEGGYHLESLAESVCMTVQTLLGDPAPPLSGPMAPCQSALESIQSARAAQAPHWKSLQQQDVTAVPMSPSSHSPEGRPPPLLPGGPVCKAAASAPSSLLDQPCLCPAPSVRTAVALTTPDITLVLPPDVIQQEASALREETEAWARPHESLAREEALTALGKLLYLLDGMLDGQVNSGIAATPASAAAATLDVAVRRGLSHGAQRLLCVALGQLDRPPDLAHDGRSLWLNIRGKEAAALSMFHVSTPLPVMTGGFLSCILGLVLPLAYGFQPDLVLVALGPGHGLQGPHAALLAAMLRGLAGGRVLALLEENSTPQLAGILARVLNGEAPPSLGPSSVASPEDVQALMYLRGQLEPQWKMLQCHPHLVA

Histone deacetylase 11 = molecular target: T3, Histone deacetylase 11 (Homo sapiens, UniProt Q96DB2); test: Inhibition of recombinant human N-terminal His-tagged HDAC11 expressed in baculovirus expression system using Fluor de Lys deacetylase or Fluor de Lys Green deacetylase substrate by fluorescent microplate reader assay
T3 sequence (Q96DB2 whole entry): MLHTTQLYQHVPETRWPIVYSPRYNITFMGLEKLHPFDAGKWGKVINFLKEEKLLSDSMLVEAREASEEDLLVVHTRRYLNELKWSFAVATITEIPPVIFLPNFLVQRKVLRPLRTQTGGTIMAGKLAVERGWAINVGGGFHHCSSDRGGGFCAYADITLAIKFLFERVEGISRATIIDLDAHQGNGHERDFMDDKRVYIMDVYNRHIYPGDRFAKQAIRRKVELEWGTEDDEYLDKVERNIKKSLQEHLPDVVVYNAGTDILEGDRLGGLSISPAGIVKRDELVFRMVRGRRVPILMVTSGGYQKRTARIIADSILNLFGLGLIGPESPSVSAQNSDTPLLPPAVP

Histone deacetylase 2 = Histone deacetylase 2 (Homo sapiens, UniProt Q92769); test: Inhibition of recombinant human C-terminal His-tagged HDAC2 (1 to 488 residues) expressed in Sf9 insect cells using Fluor de Lys deacetylase or Fluor de Lys Green deacetylase substrate by fluorescent microplate reader assay
Histone deacetylase 3 = Histone deacetylase 3 (Homo sapiens, UniProt O15379); test: Inhibition of recombinant human C-terminal His-tagged HDAC3 (1 to 428 residues) expressed in Sf9 insect cells using Fluor de Lys deacetylase or Fluor de Lys Green deacetylase substrate by fluorescent microplate reader assay
Histone deacetylase 8 = molecular target: T4, Histone deacetylase 8 (Homo sapiens, UniProt Q9BY41); test: Inhibition of recombinant human full length C-terminal His-tagged HDAC8 expressed in baculovirus expression system using Fluor de Lys deacetylase or Fluor de Lys Green deacetylase substrate by fluorescent microplate reader assay
T4 sequence (Q9BY41 whole entry): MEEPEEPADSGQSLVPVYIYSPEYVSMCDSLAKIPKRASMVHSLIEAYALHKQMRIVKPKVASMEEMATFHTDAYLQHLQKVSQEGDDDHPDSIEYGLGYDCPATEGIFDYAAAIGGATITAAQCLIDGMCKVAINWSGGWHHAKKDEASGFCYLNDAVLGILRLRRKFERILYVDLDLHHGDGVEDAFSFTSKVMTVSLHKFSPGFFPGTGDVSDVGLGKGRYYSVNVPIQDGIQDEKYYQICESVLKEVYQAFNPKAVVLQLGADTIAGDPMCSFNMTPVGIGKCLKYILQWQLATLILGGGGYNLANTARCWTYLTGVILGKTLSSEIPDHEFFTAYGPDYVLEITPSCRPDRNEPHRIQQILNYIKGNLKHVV

Histone deacetylase 5 = Histone deacetylase 5 (Homo sapiens, UniProt Q9UQL6); test: Inhibition of recombinant human ful length N-terminal GST-tagged HDAC5 expressed in baculovirus expression system using Nepsilon-Trifluoroacetyl L-lysine as substrate by fluorescent microplate reader assay
Histone deacetylase 4 = Histone deacetylase 4 (Homo sapiens, UniProt P56524); test: Inhibition of recombinant human N-terminal GST-tagged and C-terminal His-tagged HDAC4 (627 to 1084 residues) expressed in Sf9 insect cells using Nepsilon-Trifluoroacetyl L-lysine as substrate by fluorescent microplate reader assay
Histone deacetylase 9 = Histone deacetylase 9 (Homo sapiens, UniProt Q9UKV0); test: Inhibition of recombinant human C-terminal His-tagged HDAC9 (604 to 1066 residues) expressed in baculovirus expression system using Nepsilon-Trifluoroacetyl L-lysine substrate by fluorescent microplate reader assay
Histone deacetylase 7 = molecular target: T5, Histone deacetylase 7 (Homo sapiens, UniProt Q8WUI4); test: Inhibition of recombinant human N-terminal GST-tagged HDAC7 (518 to end residues) expressed in baculovirus expression system using Nepsilon-Trifluoroacetyl L-lysine as substrate by fluorescent microplate reader assay
T5 sequence (Q8WUI4 whole entry): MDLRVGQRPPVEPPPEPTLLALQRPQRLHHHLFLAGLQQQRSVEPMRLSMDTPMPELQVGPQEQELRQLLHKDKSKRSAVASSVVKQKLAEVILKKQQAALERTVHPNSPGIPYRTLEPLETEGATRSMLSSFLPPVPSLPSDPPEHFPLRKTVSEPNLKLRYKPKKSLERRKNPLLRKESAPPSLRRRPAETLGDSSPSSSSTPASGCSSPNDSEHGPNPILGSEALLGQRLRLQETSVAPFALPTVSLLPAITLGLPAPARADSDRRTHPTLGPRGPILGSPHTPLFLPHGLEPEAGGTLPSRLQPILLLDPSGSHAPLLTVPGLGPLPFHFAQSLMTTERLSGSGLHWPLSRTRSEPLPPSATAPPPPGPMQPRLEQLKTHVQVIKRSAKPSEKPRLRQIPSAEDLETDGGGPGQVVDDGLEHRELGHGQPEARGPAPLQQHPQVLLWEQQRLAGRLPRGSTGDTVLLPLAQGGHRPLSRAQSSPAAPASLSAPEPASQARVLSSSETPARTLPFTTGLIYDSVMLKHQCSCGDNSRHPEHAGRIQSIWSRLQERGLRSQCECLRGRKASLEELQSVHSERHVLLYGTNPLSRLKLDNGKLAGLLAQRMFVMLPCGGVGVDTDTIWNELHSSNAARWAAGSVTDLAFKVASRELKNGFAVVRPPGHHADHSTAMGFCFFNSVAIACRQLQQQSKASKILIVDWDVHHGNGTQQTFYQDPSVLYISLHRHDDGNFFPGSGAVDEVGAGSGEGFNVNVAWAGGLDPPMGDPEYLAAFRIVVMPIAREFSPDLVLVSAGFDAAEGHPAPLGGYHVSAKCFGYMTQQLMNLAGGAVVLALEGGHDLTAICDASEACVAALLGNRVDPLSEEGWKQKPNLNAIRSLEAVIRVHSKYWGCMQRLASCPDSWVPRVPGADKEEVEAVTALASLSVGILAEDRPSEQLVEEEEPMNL

Histone deacetylase 3, sequence (O15379 whole entry, the tested form may be a part): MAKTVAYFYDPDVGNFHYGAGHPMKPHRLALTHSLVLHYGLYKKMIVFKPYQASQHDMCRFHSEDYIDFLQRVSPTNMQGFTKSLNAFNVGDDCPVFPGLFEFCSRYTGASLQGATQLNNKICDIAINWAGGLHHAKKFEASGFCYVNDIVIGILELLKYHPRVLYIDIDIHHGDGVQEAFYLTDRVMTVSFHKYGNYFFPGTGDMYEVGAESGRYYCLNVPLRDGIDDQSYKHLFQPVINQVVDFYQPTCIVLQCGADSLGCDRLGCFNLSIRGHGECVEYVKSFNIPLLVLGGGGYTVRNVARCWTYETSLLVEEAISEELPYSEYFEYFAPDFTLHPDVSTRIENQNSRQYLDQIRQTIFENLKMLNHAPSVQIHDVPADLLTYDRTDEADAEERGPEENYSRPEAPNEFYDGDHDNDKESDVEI
Histone deacetylase 1, sequence (Q13547 whole entry, the tested form may be a part): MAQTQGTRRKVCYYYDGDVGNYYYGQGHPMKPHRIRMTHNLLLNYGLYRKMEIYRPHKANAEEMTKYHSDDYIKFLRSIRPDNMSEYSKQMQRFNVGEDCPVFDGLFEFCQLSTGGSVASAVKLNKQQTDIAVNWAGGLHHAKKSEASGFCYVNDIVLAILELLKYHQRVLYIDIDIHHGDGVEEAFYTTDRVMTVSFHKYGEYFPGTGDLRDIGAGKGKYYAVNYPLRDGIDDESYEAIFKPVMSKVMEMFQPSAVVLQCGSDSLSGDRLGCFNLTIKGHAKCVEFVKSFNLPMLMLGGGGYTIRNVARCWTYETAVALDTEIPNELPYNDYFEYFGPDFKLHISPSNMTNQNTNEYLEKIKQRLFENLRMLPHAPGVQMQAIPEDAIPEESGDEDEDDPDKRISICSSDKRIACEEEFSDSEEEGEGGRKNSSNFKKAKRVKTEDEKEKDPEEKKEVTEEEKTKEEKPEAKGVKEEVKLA
Histone deacetylase 2, sequence (Q92769 whole entry, the tested form may be a part): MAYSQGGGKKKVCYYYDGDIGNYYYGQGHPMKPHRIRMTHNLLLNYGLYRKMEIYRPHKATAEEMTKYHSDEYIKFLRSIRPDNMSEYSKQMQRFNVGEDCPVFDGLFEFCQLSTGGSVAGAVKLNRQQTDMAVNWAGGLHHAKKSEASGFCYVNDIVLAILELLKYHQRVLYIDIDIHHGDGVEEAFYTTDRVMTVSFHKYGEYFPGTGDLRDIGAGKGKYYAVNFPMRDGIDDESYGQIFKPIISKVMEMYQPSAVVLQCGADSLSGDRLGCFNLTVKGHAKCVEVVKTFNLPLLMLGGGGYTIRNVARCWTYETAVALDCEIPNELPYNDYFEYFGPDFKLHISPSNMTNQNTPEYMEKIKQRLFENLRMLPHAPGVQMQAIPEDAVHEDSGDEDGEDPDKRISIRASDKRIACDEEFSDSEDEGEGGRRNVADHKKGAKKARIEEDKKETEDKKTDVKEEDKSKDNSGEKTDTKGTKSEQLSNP
Histone deacetylase 4, sequence (P56524 whole entry, the tested form may be a part): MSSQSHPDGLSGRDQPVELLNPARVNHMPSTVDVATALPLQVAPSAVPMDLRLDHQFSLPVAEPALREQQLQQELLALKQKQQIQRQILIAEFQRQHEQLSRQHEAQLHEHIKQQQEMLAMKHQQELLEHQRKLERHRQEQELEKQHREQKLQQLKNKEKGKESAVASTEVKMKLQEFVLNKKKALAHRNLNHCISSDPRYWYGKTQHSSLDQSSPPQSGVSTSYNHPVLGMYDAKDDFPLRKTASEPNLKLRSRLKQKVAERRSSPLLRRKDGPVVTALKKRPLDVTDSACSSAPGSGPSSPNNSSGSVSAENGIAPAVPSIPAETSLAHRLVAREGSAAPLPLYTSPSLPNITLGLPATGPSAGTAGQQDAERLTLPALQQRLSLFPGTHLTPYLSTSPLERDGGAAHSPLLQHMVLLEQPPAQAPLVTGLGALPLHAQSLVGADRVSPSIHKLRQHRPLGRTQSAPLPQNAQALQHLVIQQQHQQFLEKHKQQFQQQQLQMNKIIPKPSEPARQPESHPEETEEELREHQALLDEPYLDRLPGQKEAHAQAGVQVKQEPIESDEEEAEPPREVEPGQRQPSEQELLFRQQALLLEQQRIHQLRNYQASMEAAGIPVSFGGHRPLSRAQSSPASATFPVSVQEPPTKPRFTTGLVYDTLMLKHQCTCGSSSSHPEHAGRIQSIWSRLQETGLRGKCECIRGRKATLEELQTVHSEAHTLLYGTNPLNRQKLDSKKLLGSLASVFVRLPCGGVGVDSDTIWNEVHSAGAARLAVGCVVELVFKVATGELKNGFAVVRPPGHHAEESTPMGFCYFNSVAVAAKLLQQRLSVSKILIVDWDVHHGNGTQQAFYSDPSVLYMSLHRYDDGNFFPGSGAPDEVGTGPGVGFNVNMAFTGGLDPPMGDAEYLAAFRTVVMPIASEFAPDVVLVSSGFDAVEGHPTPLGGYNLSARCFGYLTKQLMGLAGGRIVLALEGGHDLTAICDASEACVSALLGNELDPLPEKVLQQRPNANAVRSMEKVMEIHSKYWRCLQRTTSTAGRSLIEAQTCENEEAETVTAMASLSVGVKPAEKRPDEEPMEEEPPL
Histone deacetylase 9, sequence (Q9UKV0 whole entry, the tested form may be a part): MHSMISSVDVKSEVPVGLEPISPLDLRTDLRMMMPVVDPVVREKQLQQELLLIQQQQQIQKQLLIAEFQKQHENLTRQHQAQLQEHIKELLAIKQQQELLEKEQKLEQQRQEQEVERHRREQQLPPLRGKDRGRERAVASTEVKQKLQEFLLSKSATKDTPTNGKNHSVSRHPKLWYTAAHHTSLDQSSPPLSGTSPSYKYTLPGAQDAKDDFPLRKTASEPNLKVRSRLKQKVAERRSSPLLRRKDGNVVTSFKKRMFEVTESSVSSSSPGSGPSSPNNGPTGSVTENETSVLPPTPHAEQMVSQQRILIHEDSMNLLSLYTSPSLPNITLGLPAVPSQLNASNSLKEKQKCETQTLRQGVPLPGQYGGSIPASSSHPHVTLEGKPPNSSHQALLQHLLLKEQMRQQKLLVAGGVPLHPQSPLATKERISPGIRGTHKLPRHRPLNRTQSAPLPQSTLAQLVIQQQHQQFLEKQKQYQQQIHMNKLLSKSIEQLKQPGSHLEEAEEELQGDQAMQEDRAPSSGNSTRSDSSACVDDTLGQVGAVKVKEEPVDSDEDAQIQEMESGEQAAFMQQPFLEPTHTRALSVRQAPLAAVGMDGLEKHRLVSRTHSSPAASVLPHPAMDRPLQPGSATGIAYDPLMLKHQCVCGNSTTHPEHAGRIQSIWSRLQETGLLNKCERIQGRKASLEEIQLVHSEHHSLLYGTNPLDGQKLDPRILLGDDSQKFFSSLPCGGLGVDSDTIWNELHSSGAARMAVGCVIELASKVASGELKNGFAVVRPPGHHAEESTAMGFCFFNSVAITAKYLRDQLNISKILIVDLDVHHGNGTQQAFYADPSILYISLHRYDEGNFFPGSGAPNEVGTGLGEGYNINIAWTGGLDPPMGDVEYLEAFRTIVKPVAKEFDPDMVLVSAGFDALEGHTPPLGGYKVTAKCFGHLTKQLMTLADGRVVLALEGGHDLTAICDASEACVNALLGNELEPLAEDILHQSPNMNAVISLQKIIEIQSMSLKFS
Histone deacetylase 5, sequence (Q9UQL6 whole entry, the tested form may be a part): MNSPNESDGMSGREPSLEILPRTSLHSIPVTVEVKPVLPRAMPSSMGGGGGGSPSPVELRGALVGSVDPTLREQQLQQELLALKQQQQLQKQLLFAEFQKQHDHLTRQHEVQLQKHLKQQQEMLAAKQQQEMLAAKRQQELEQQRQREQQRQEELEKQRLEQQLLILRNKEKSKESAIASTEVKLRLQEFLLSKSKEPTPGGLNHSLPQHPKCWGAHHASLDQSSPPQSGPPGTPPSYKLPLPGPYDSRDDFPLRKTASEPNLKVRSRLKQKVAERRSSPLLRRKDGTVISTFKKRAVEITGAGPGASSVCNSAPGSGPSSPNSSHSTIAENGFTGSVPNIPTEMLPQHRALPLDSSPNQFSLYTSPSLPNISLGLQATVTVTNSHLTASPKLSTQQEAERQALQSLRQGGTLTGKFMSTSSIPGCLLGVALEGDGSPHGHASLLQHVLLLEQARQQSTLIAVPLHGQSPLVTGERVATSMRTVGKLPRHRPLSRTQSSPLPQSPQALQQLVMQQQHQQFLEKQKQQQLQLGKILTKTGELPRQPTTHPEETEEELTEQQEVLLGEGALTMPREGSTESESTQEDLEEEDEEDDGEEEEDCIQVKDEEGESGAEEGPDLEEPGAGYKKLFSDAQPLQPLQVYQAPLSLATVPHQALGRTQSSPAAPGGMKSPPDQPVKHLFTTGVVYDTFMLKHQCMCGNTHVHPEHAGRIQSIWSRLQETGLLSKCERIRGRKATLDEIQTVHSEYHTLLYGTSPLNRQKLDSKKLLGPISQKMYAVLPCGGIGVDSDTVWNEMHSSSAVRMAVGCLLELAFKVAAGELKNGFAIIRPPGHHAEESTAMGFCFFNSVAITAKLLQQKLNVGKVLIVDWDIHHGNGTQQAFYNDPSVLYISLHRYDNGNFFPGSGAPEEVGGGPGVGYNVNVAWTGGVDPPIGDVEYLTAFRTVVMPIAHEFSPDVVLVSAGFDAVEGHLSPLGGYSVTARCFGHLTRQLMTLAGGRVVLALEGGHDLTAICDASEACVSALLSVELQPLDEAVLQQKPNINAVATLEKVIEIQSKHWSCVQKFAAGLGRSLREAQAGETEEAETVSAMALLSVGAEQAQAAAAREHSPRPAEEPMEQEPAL

SMILES	Selectivity Index (Homo sapiens)	IC50 [1]	IC50 (Histone deacetylase 1)	also measured
O=C(NO)c1cccc(F)c1	64	453 nM	29.4 µM	–
Nc1ccc(C(=O)NO)cc1	18	389 nM	7.14 µM	–
Nc1c(F)cc(C(=O)NO)cc1F	141	112 nM	15.8 µM	–
Nc1ncc(C(=O)NO)cn1	47	64 nM	3.06 µM	–
O=C(NO)c1cc(F)c(Cn2nnnc2-c2cccs2)c(F)c1	–	–	–	IC50 [2]: 8.74 µM; IC50 (Histone deacetylase 11): 5.66 µM; IC50 (Histone deacetylase 2): 9.23 µM; IC50 (Histone deacetylase 3): 6.04 µM
O=C(NO)c1cc(F)c(Cn2nnc(-c3ncccn3)n2)c(F)c1	–	–	3.96 µM	IC50 (Histone deacetylase 8): 504 nM; IC50 (Histone deacetylase 5): 2.79 µM; IC50 (Histone deacetylase 4): 562 nM; IC50 [2]: 9.08 µM; IC50 (Histone deacetylase 11): 3.07 µM; IC50 (Histone deacetylase 9): 480 nM; IC50 (Histone deacetylase 2): 17.2 µM; IC50 (Histone deacetylase 3): 5.18 µM
Cc1ccc(C(=O)NO)cc1F	140	49 nM	6.82 µM	–
CCN(CC)Cc1ccc2cc(COC(=O)Nc3c(F)cc(C(=O)NO)cc3F)ccc2c1	70	10 nM	0.718 µM	–
Cc1ccc(C(=O)NO)cc1	40	140 nM	5.64 µM	–
Nc1ccc(C(=O)NO)cc1F	40	183 nM	7.39 µM	–
O=C(NO)c1ccc(Cn2nnc(-c3ncccn3)n2)cc1	733	–	0.93 µM	IC50 (Histone deacetylase 8): 320 nM; IC50 (Histone deacetylase 5): 5 µM; IC50 (Histone deacetylase 4): 4600 nM; IC50 [2]: 0.474 µM; IC50 (Histone deacetylase 11): 0.762 µM; IC50 (Histone deacetylase 9): 1700 nM; IC50 (Histone deacetylase 2): 3.01 µM; IC50 (Histone deacetylase 7): 1010 nM; IC50 (Histone deacetylase 3): 0.884 µM
CC(=O)Nc1ccc(C(=O)NO)cc1	11	162 nM	1.91 µM	–
O=C(NO)c1ccccc1 [BENZOHYDROXAMATE]	19	1340 nM	25.4 µM	–
Cc1ccc(C(=O)NO)cn1	162	70 nM	11.4 µM	–
Cc1c(F)cc(C(=O)NO)cc1F	505	27 nM	13.8 µM	–
O=C(NO)c1cccnc1 [NICOXAMAT]	51	679 nM	35 µM	–
Nc1ccc(C(=O)NO)cn1	40	240 nM	9.71 µM	–
CC(=O)Nc1ccc(C(=O)NO)cc1F	55	58 nM	3.21 µM	–
